Measured values reported in patent publication US20050042751A1, “Generation and use of new types of dendritic cells” (priority 2001, published 2005).

Legend:
Type in all cases: cell-based, human
[1] = tested on: γδ T cells; test: TNF-α and IFN-γ production by γδ T cells (ELISA)
Method: γδ T cells (7.5 10^5 cells/500 μl) were either cultured in medium alone or stimulated with BrHpp (200 nM). After 48 h, culture supernatants were assayed by ELISA for TNF-α and IFN-γ levels.
For γδ T cell isolation, cells expressing γ-δ receptors on their membrane were positively selected using immunomagnetic depletion (Miltenyi Sanvertech, Belgium). Briefly, non-adherent PBMC containing 2 to 5% of γδ T cells were incubated with biotin-conjugated anti-γδ T cell receptor (TCR) antibodies for 15 min at 4° C., washed three times, and then incubated with immunomagnetic beads coated with streptavidin.
Cell culture conditions. γδ T cells (7.5 10^5 cells/500 μl) were cultured for 24 h in flat-bottomed 24-well plates in culture medium supplemented or not with BrHpp (200 nM). Autologous DC (10^6 cells/500 μl) were added to γδ T cell cultures for another 24 h and analyzed for the expression of surface markers and for their ability to release cytokines. In parallel, DC (10^6 cells/ml) were cultured for 24 h in 24-well plates either in medium alone, or in presence of BrHpp (100 nM). […] In parallel, DC and γδ T cells were cocultured in a transwell culture system (Costar, Belgium).
(§1) Determination of cytokine levels. TNF-α, IL-12 p-40 and IFN-γ levels in culture supernatants were determined by ELISA kits from Biosource. IL-12 p70 levels were measured using the Endogen Elisa kit (Endogen, Belgium).

[2] = tested on: monocyte-derived DC; test: Phenotypic changes of DC upon coculture with γδ T cells (flow cytometry)
Method: DC cultures were cultured for 24 alone, in the presence of BrHpp (200 nM) only, or with γδ T cells activated by BrHpp as described in example 1. Neutralizing anti-TNF or anti-IFNγ Ab was added at a concentration of 20 and 15 μg/ml, respectively. The expression of HLA-DR, CD86, and CD83 on DC was measured by flow cytometry and expressed as means+/−SEM of mean fluorescence intensity in five independent experiments on different healty donors. • ^1 p<0.05 compared to DC cultured alone or with BrHpp only. • ^2 p<0.05 compared to DC cultured with activated γδ T cells in absence of mAb.
Purification of γδ T cells and DC generation. Peripheral blood mononuclear cells (PBMC) from healthy volunteers were isolated by density centrifugation of heparinized blood on Lymphoprep (Nycomed, Oslo, Norway), washed with HBSS, resuspended in culture medium and allowed to adhere In culture flasks for 2 h at 37° C. Non-adherent cells were removed and adherent monocytes were cultured during 6 days in presence of 500 U/ml granulocyte macrophage colony-stimulating factor (GM-CSF) (Leucomax, Schering-Plough Kenilworth, N.J.) and 800 U/ml of IL-4 (Cellgenix, Freiburg, Germany). The resulting cell preparation routinely contained >90% DC as assessed by morphology and FACS analysis.
(§2) Cell culture conditions. γδ T cells (7.5 10^5 cells/500 μl) were cultured for 24 h in flat-bottomed 24-well plates in culture medium supplemented or not with BrHpp (200 nM). Autologous DC (10^6 cells/500 μl) were added to γδ T cell cultures for another 24 h and analyzed for the expression of surface markers and for their ability to release cytokines. In parallel, DC (10^6 cells/ml) were cultured for 24 h in 24-well plates either in medium alone, or in presence of BrHpp (100 nM). In some experiments, anti-TNF-α (20 μg/ml) or anti-IFN-γ (15 μg/ml) neutralizing monoclonal antibody (mAb) or their isotypic control used at similar concentration (Biosource Fleurus, Belgium) were added to DC-γδ T cell cocultures. In parallel, DC and γδ T cells were cocultured in a transwell culture system (Costar, Belgium).
Immunophenotyping by flow cytometry. Monocyte-derived DC were stained using PE-labeled specific mAb HLA-DR, CD86, CD83 (Beckton-Dickinson, Mountain view, CA). FITC-conjugated anti-TCR γδ mAb (Becton-Dickinson, San Jose, Calif.) was used to assess γδ T cell purity and to exclude them in flow cytometry analysis of DC in DC-γδ T cell cocultures. Briefly, 5×10^5 cells were incubated with the relevant mAbs or their isotype-matched controls for 20 min at 4° C., washed and fluorescence intensity was analyzed using a FACS-Calibur (Becton-Dickinson).

[3] = tested on: monocyte-derived DC; test: IL-12 production by DC in DC-γδ T cell cocultures (ELISA)
Method: FIG. 3: γδ T cells induce IL-12 production by DC. Monocyte-derived DC were cocultured alone or in the presence of BrHpp only or cocultured with unstimulated or BrHpp-activated γδ T in absence or presence of either anti-TNF-α, anti-IFN-γ neutralizing mAbs or both. After 24 h of culture, supernatants were assayed for IL12-p40 and p70 levels by ELISA. Results were expressed as mean±SEM of 6 independent experiments. • * p<0.05 compared to DC cultured in medium alone or containing BrHpp • ** p<0.05 compared to DC stimulated with BrHPP-activated γδ T cells in the absence of mAb.
as §2, §1

[4] = γδ T cells 7.5 10^5 cells/500 μl, BrHpp 200 nM, 48 h, culture supernatant, mean±SEM of 13 experiments
[5] = DC cultured 24 h with BrHpp (200 nM) only, mean+/-SEM, 5 experiments

Structure (SMILES): CC(O)(CBr)CCOP(=O)(O)OP(=O)(O)O (centres unmarked) [BrHpp, bromohydrin pyrophosphate]
- effect on IFN-γ secretion by γδ T cells ([1]; text statement on table 1): induced
- effect on basal production of TNF-α by γδ T cells ([1]; text statement on table 1): further increased
- IFN-γ [1, 4]: 452 ± 76^1 pg/ml
- TNF-α [1, 4]: 17406 ± 1290^1 pg/ml
- CD83 expression on DC (mean fluorescence intensity) [2, 5]: 69 +/− 14
- CD86 expression on DC (mean fluorescence intensity) [2, 5]: 308 +/− 205
- HLA DR expression on DC (mean fluorescence intensity) [2, 5]: 610 +/− 354
- effect of preactivation of γδT cells on upregulation of HLA-DR, CD86 and CD83 on DC ([2]; γδT cells preactivated with BrHpp versus not preactivated): did not result in a further increase
- effect on IL-12 production by DC ([3]; DC cultured in absence of γδ T cells): no effect
- induction of IL-12 (p70) synthesis ([3]; DC-γδ T cell coculture in the presence of BrHpp): detected
- increase in IL-12 (p40) levels ([3]; DC-γδ T cell coculture in the presence of BrHpp versus without BrHpp): 3 fold
